{"source": "patent US20240239784A1", "about": "“INDOLE COMPOUNDS AND METHODS OF USE” (GENZYME CORPORATION, priority 2021, published 2024)", "data": [{"system": "NBD1", "test": "Aggregation analysis of NBD1 thermal stability by differential static light scattering (DSLS)", "format": "binding, Human", "settings": "compound at 100 μM; ΔTagg versus DMSO control", "description": "Purified recombinant NBD1 was produced using previously described methods (A. Schmidt, J. L. Mendoza, P. J. Thomas (2011) Biochemical and Biophysical Approaches to Probe CFTR Structure (365-376) M. D. Amaral, K. Kunzelmann (eds.), Cysic Fibrosis, Methods in Molecular Biology 741, Springer Science+Business Media). The effect of test compounds on thermal stability of NBD1 was evaluated by differential static light scattering (DSLS) using the Harbinger Stargazer-384 instrument (Epiphyte Three, Toronto, Canada). Test compounds were dissolved and diluted to desired concentrations in 100% DMSO. The compounds or DMSO controls (100 nL) were stamped into wells of a […] low volume optical plate (Corning Inc., Corning, NY) using the Echo 555 acoustic liquid handler (Labcyte Inc., San Jose, CA).\nNBD1 protein was diluted to 0.2 mg/ml in S200 buffer (50 mM Tris-HCl, 150 mM NaCl, 5 mM MgCl2, 2 mM ATP, 2 mM DTT, pH7.6) containing 1% glycerol. 10 uL of protein solution was aliquoted into the 384-well plate harboring the test compounds and 10 uL mineral oil was overlayed onto the protein solution, using the epMotion robotic liquid handler (Eppendorf North America, Hauppauge, NY). After placing into the Stargazer instrument, the plate was heated at 1° C. per minute to 70° C. Images were captured from 25° C. to 70° C. every 0.5° C. At the end of the experiment run, instrument software integrated image files and analyzed data automatically. A […] regression curve was generated for each well, representing the increase in light scattering over time. A temperature of aggregation (Tagg) was calculated based on the inflection point of the curve. To better compare data across experiments the average Tagg for DMSO control wells was calculated and subtracted from values for wells containing compounds to obtain a “ΔTagg” value. These ΔTagg values reflect stabilizing efficacy of the compounds.", "values": [{"molecule": "CS(=O)(=O)c1c(Oc2ccc(F)c(-c3nc(C(OCCO)c4ccccc4)c[nH]3)c2)c(F)cc2[nH]ccc12", "note": "(stereo not shown) [Example 72, 2-((2-(2-Fluoro-5-((6-fluoro-4-(methylsulfonyl)-1H-indol-5-yl)oxy)phenyl)-1H-imidazol-4-yl)(phenyl)methoxy)ethan-1-ol]", "DSLS NBD1/3D Human Stability delta-T (° C.) @ 100 (μM)": "A (T ≥8° C.)"}, {"molecule": "Nc1cnc(-c2nnc(Cc3ccccc3)[nH]2)cc1Oc1ccc2[nH]ccc2c1", "note": "[Example 44, 4-((1H-Indol-5-yl)oxy)-6-(5-benzyl-4H-1,2,4-triazol-3-yl)pyridin-3-amine]", "DSLS NBD1/3D Human Stability delta-T (° C.) @ 100 (μM)": "B (4-8° C.)"}, {"molecule": "O=C(O)Cc1c(Oc2cccc(-c3nnc(Cc4ccccc4)[nH]3)c2)ccc2[nH]ccc12", "note": "[Example 11, 2-(5-(3-(5-Benzyl-4H-1,2,4-triazol-3-yl)phenoxy)-1H-indol-4-yl)acetic acid]", "DSLS NBD1/3D Human Stability delta-T (° C.) @ 100 (μM)": "B (4-8° C.)"}, {"molecule": "CNCCS(=O)(=O)c1c(Oc2cccc(-c3ncc(C(C)(O)c4ccccc4)[nH]3)c2)c(F)cc2[nH]ccc12", "note": "(stereo not shown) [Example 64, 1-(2-(3-((6-Fluoro-4-((2-(methylamino)ethyl)sulfonyl)-1H-indol-5-yl)oxy)phenyl)-1H-imidazol-5-yl)-1-phenylethan-1-ol]", "DSLS NBD1/3D Human Stability delta-T (° C.) @ 100 (μM)": "A (T ≥8° C.)"}, {"molecule": "CC(O)(c1ccccc1)c1cnc(-c2cccc(Oc3ccc4[nH]ccc4c3S(C)(=O)=O)c2)[nH]1", "note": "(single isomer, unassigned) [Example 63A, 1-(2-(3-((4-(methylsulfonyl)-1H-indol-5-yl)oxy)phenyl)-1H-imidazol-5-yl)-1-phenylethan-1-ol]", "DSLS NBD1/3D Human Stability delta-T (° C.) @ 100 (μM)": "A (T ≥8° C.)"}, {"molecule": "CC(=O)c1c(Oc2cccc(-c3nc(C(C)(O)c4ccccc4)c[nH]3)c2)c(F)cc2[nH]ccc12", "note": "(stereo not shown) [Example 65, 1-(6-Fluoro-5-(3-(4-(1-hydroxy-1-phenylethyl)-1H-imidazol-2-yl)phenoxy)-1H-indol-4-yl)ethan-1-one]", "DSLS NBD1/3D Human Stability delta-T (° C.) @ 100 (μM)": "A (T ≥8° C.)"}, {"molecule": "OCc1c(Oc2cccc(-c3nnc(Cc4ccccc4)[nH]3)c2)ccc2[nH]ccc12", "note": "[Example 20, (5-(3-(5-Benzyl-4H-1,2,4-triazol-3-yl)phenoxy)-1H-indol-4-yl)methanol]", "DSLS NBD1/3D Human Stability delta-T (° C.) @ 100 (μM)": "B (4-8° C.)"}, {"molecule": "O=C(c1cccc(-c2nnc(Cc3ccccc3)[nH]2)c1)c1ccc2[nH]ccc2c1", "note": "[Example 34, (3-(5-Benzyl-4H-1,2,4-triazol-3-yl)phenyl)(1H-indol-5-yl)methanone]", "DSLS NBD1/3D Human Stability delta-T (° C.) @ 100 (μM)": "C (≤4° C.)"}, {"molecule": "CC(O)(c1ccccc1)c1cnc(-c2cc(Oc3c(F)cc4[nH]ccc4c3CCC(=O)O)ccc2F)[nH]1", "note": "(stereo not shown) [Example 71, 3-(6-Fluoro-5-(4-fluoro-3-(5-(1-hydroxy-1-phenylethyl)-1H-imidazol-2-yl)phenoxy)-1H-indol-4-yl)propanoic acid]", "DSLS NBD1/3D Human Stability delta-T (° C.) @ 100 (μM)": "A (T ≥8° C.)"}, {"molecule": "NCc1nc(-c2cc(Oc3c(F)cc4[nH]ccc4c3F)ccc2F)[nH]c1Cc1ccccc1", "note": "[Example 80, (5-Benzyl-2-(5-((4,6-difluoro-1H-indol-5-yl)oxy)-2-fluorophenyl)-1H-imidazol-4-yl)methanamine]", "DSLS NBD1/3D Human Stability delta-T (° C.) @ 100 (μM)": "B (4-8° C.)"}, {"molecule": "O=C(O)c1c(Oc2cccc(-c3nnc(Cc4ccccc4)[nH]3)c2)ccc2[nH]ccc12", "note": "[Example 19, 5-(3-(5-Benzyl-4H-1,2,4-triazol-3-yl)phenoxy)-1H-indole-4-carboxylic acid]", "DSLS NBD1/3D Human Stability delta-T (° C.) @ 100 (μM)": "B (4-8° C.)"}, {"molecule": "CC(O)(c1ccccc1)c1cnc(-c2cccc(Oc3c(F)cc4[nH]ccc4c3C(N)=O)c2)[nH]1", "note": "(stereo not shown) [Example 9, 6-Fluoro-5-(3-(5-(1-hydroxy-1-phenylethyl)-1H-imidazol-2-yl)phenoxy)-1H-indole-4-carboxamide]", "DSLS NBD1/3D Human Stability delta-T (° C.) @ 100 (μM)": "A (T ≥8° C.)"}, {"molecule": "CN(C)CCNC(c1ccccc1)c1c[nH]c(-c2cccc(Oc3ccc4[nH]ccc4n3)c2)n1", "note": "(stereo not shown) [Example 54, N1-((2-(3-((1H-pyrrolo[3,2-b]pyridin-5-yl)oxy)phenyl)-1H-imidazol-5-yl)(phenyl)methyl)-N2,N2-dimethylethane-1,2-diamine]", "DSLS NBD1/3D Human Stability delta-T (° C.) @ 100 (μM)": "B (4-8° C.)"}, {"molecule": "O=C1NCc2c[nH]c3ccc(Oc4cccc(-c5nnc(Cc6ccccc6)[nH]5)c4)c1c23", "note": "[Example 42, 6-(3-(5-Benzyl-4H-1,2,4-triazol-3-yl)phenoxy)-3,4-dihydropyrrolo[4,3,2-de]isoquinolin-5(1H)-one]", "DSLS NBD1/3D Human Stability delta-T (° C.) @ 100 (μM)": "C (≤4° C.)"}, {"molecule": "CC(O)(c1ccccc1)c1cnc(-c2cccc(Sc3ccc4[nH]ccc4c3)c2)[nH]1", "note": "(stereo not shown) [Example 39, 1-(2-(3-((1H-Indol-5-yl)thio)phenyl)-1H-imidazol-5-yl)-1-phenylethan-1-ol]", "DSLS NBD1/3D Human Stability delta-T (° C.) @ 100 (μM)": "C (≤4° C.)"}, {"molecule": "CC(O)(c1ccccc1)c1c[nH]c(-c2cc(Oc3c(F)cc4[nH]ccc4c3CC3SC(=O)NC3=O)ccc2F)n1", "note": "(stereo not shown) [Example 1, 5-((6-Fluoro-5-(4-fluoro-3-(4-(1-hydroxy-1-phenylethyl)-1H-imidazol-2-yl)phenoxy)-1H-indol-4-yl)methyl)thiazolidine-2,4-dione]", "DSLS NBD1/3D Human Stability delta-T (° C.) @ 100 (μM)": "A (T ≥8° C.)"}, {"molecule": "O=C(NCC(O)C(F)(F)F)c1c(Oc2cccc(-c3nc(C(O)c4ccccc4)c[nH]3)c2)ccc2[nH]ccc12", "note": "(stereo not shown) [Example 83, 5-(3-(4-(Hydroxy(phenyl)methyl)-1H-imidazol-2-yl)phenoxy)-N-(3,3,3-trifluoro-2 hydroxypropyl)-1H-indole-4-carboxamide]", "DSLS NBD1/3D Human Stability delta-T (° C.) @ 100 (μM)": "A (T ≥8° C.)"}, {"molecule": "CN(C)CCNC(c1ccccc1)c1nnc(-c2cccc(Oc3ccc4[nH]ccc4n3)c2)[nH]1", "note": "(stereo not shown) [Example 24, N1-((5-(3-((1H-Pyrrolo[3,2-b]pyridin-5-yl)oxy)phenyl)-4H-1,2,4-triazol-3-yl)(phenyl)methyl)-N2,N2-dimethylethane-1,2-diamine]", "DSLS NBD1/3D Human Stability delta-T (° C.) @ 100 (μM)": "B (4-8° C.)"}, {"molecule": "O=C(O)c1c(Oc2cccc(-c3nc(C(O)(c4ccccc4)C(F)(F)F)n[nH]3)c2)ccc2[nH]ccc12", "note": "(stereo not shown) [Example 67, 5-(3-(3-(2,2,2-Trifluoro-1-hydroxy-1-phenylethyl)-1H-1,2,4-triazol-5-yl)phenoxy)-1H-indole-4-carboxylic acid]", "DSLS NBD1/3D Human Stability delta-T (° C.) @ 100 (μM)": "C (≤4° C.)"}, {"molecule": "OC(c1cccc(-c2nnc(Cc3ccccc3)[nH]2)c1)c1ccc2[nH]ccc2c1", "note": "(single isomer, unassigned) [Example 35A, (3-(5-Benzyl-4H-1,2,4-triazol-3-yl)phenyl)(1H-indol-5-yl)methanol]", "DSLS NBD1/3D Human Stability delta-T (° C.) @ 100 (μM)": "B (4-8° C.)"}, {"molecule": "CC(O)(c1ccccc1)c1cnc(-c2cccc(Oc3c(F)cc4[nH]ccc4c3C=C3SC(=O)NC3=O)c2)[nH]1", "note": "(stereo not shown) [Example 3, 5-((6-fluoro-5-(3-(5-(1-hydroxy-1-phenylethyl)-1H-imidazol-2-yl)phenoxy)-1H-indol-4-yl)methylene)thiazolidine-2,4-dione]", "DSLS NBD1/3D Human Stability delta-T (° C.) @ 100 (μM)": "A (T ≥8° C.)"}, {"molecule": "O=C(O)CCc1c(Oc2cccc(-c3nnc(Cc4ccccc4)[nH]3)c2)ccc2[nH]ccc12", "note": "[Example 58, 3-(5-(3-(5-Benzyl-4H-1,2,4-triazol-3-yl)phenoxy)-1H-indol-4-yl)propanoic acid]", "DSLS NBD1/3D Human Stability delta-T (° C.) @ 100 (μM)": "A (T ≥8° C.)"}, {"molecule": "CC(O)(c1ccccc1)c1cnc(-c2cccc(Oc3ccc4[nH]ccc4c3S(C)(=O)=O)c2)[nH]1", "note": "(single isomer, unassigned) [Example 63B, 1-(2-(3-((4-(methylsulfonyl)-1H-indol-5-yl)oxy)phenyl)-1H-imidazol-5-yl)-1-phenylethan-1-ol]", "DSLS NBD1/3D Human Stability delta-T (° C.) @ 100 (μM)": "B (4-8° C.)"}, {"molecule": "C[S+]([O-])c1c(Oc2cccc(-c3ncc(C(O)c4ccccc4)[nH]3)c2)ccc2[nH]ccc12", "note": "(stereo not shown) [Example 55, (2-(3-((4-(Methylsulfinyl)-1H-indol-5-yl)oxy)phenyl)-1H-imidazol-5-yl)(phenyl)methanol]", "DSLS NBD1/3D Human Stability delta-T (° C.) @ 100 (μM)": "B (4-8° C.)"}, {"molecule": "[O-][S+](c1ccccc1)c1cnc(-c2cccc(Oc3ccc4[nH]ccc4c3)c2)[nH]1", "note": "(stereo not shown) [Example 31, 5-(3-(5-(Phenylsulfinyl)-1H-imidazol-2-yl)phenoxy)-1H-indole]", "DSLS NBD1/3D Human Stability delta-T (° C.) @ 100 (μM)": "B (4-8° C.)"}, {"molecule": "CC(C)(c1ccccc1)c1cnc(-c2cc(Oc3c(F)cc4[nH]ccc4c3CCC(=O)O)ccc2F)[nH]1", "note": "[Example 10, 3-(6-Fluoro-5-(4-fluoro-3-(5-(2-phenylpropan-2-yl)-1H-imidazol-2-yl)phenoxy)-1H-indol-4-yl)propanoic acid]", "DSLS NBD1/3D Human Stability delta-T (° C.) @ 100 (μM)": "A (T ≥8° C.)"}, {"molecule": "OCc1c(Oc2cccc(-c3nc(Cc4ccccc4)cs3)c2)ccc2[nH]ccc12", "note": "[Example 48, (5-(3-(4-Benzylthiazol-2-yl)phenoxy)-1H-indol-4-yl)methanol]", "DSLS NBD1/3D Human Stability delta-T (° C.) @ 100 (μM)": "C (≤4° C.)"}, {"molecule": "CC(C)(O)c1nc(-c2cc(Oc3c(F)cc4[nH]ccc4c3S(C)(=O)=O)ccc2F)[nH]c1Cc1ccccc1", "note": "[Example 79, 2-(5-Benzyl-2-(2-fluoro-5-((6-fluoro-4-(methylsulfonyl)-1H-indol-5-yl)oxy)phenyl)-1H-imidazol-4-yl)propan-2-ol]", "DSLS NBD1/3D Human Stability delta-T (° C.) @ 100 (μM)": "B (4-8° C.)"}]}]}
